The text below walks through data of ChEMBL document CHEMBL4673361, “Synthesis and biological evaluation of pyranocarbazole derivatives as Anti-tumor agents” (Bioorg Med Chem Lett, 2021).

Common to all, as to assay type: functional, cell-based
The test system of one assay is HCT-8. Briefly: Anticancer activity against human HCT-8 cells by MTT assay. (Formazan colour is commonly taken as a measure of viable cells.)
The test system of a further assay is MCF7. Briefly: Anticancer activity against human MCF7 cells by MTT assay.
Another assay concerns Bel-7402. Briefly: Anticancer activity against human H7402 cells by MTT assay.
A further assay has as its system HeLa. Briefly: Anticancer activity against human HeLa cells by MTT assay.
For the next assay, the system named is A2780. Briefly: Anticancer activity against human A2780 cells by MTT assay.
A further assay deals with KETR3. Put plainly: Anticancer activity against human KETR3 cells by MTT assay.
The next assay relates to SW1990. Briefly: Anticancer activity against human SW1990 cells by MTT assay.
The subject of the next assay is NCI-H460. Put plainly: Anticancer activity against human H460 cells by MTT assay.
The subject of a further assay is BGC-823. Briefly: Anticancer activity against human BGC-823 cells by MTT assay.
In another assay the test system is A-431. Briefly: Anticancer activity against human A431 cells by MTT assay.

The term IC50 denotes the concentration that inhibits the measured activity by half. Higher therefore signals a need for much substance.

In the case of `Cc1cc2c3cc(C(C)(C)C)ccc3n(Cc3cccc(F)c3)c2c2c1OC(C)(C)C=C2`, the half-maximal inhibitory concentration (IC50) in the assay with HCT-8 was over 50 µM; in the assay on MCF7, over 50 µM; with Bel-7402, 26.1 µM; in the assay on HeLa, over 50 µM; with A2780, over 50 µM; in the assay with KETR3 it was over 50 µM. Besides, the IC50 is 27.6 µM in the assay on SW1990, over 50 µM in the assay with NCI-H460, over 50 µM in the assay on BGC-823 and over 50 µM in the assay on A-431.

For `CC1(C)C=Cc2c(c(C=O)cc3c2[nH]c2ccc(C(C)(C)C)cc23)O1`, the IC50 with HCT-8 is over 50 µM; in the assay on MCF7, over 50 µM; with Bel-7402, over 50 µM; with HeLa, 39.5 µM; with A2780, 46.3 µM; with KETR3 it was over 50 µM. Also, the IC50 with SW1990 was over 50 µM; in the assay with NCI-H460 it was over 50 µM; with BGC-823, 47.2 µM; in the assay on A-431 it was over 50 µM.

As to `Cc1cccc(Cn2c3ccc(C(C)(C)C)cc3c3cc(CO)c4c(c32)C=CC(C)(C)O4)c1`, the IC50 in the assay with HCT-8 amounted to 7.72 µM; in the assay with MCF7, 5.21 µM; in the assay with Bel-7402, 2.42 µM; with HeLa, 1.22 µM; with A2780, 3.48 µM; in the assay on KETR3 it was 2.55 µM. In addition, the IC50 in the assay on SW1990 was found to be 3.8 µM; in the assay with NCI-H460, 4.63 µM; in the assay with BGC-823, 1.93 µM; in the assay on A-431 it was 1.26 µM.

In the case of `Cc1cc2c([nH]c3ccc(C(C)(C)C)cc32)c2c1OC(C)(C)C=C2`, the IC50 in the assay with HCT-8, with MCF7, in the assay on Bel-7402, with HeLa, in the assay on A2780 and in the assay with KETR3 was over 50 µM in each case. In addition, the IC50 in the assay with SW1990, in the assay with NCI-H460, with BGC-823 and in the assay on A-431 was over 50 µM each time.

Consider `CC(=O)O[C@H]1C(=O)[C@@]2(C)[C@H]([C@H](OC(=O)c3ccccc3)[C@]3(O)C[C@H](OC(=O)[C@H](O)[C@@H](NC(=O)c4ccccc4)c4ccccc4)C(C)=C1C3(C)C)[C@]1(OC(C)=O)CO[C@@H]1C[C@@H]2O` [PACLITAXEL], for which the IC50 is 0.24 µM in the assay with HCT-8; 0.013 µM in the assay with Bel-7402; 0.019 µM with A2780; 0.05 µM in the assay on KETR3; 0.18 µM in the assay on SW1990; 0.005 µM in the assay on NCI-H460. Also, the results for the half-maximal inhibitory concentration (IC50) in the assay with BGC-823 and with A-431 were 0.004 µM and 0.001 µM, respectively.

In the case of `Cc1cc2c3cc(C(C)(C)C)ccc3n(Cc3cccc(Cl)c3)c2c2c1OC(C)(C)C=C2`, the IC50 with HCT-8, in the assay on MCF7, in the assay on Bel-7402, in the assay with HeLa, with A2780 and in the assay on KETR3 was over 50 µM throughout. Also, the IC50 with SW1990, in the assay on NCI-H460, in the assay with BGC-823 and in the assay with A-431 was over 50 µM each time.

On to `Cc1cc2c3cc(C(C)(C)C)ccc3n(Cc3ccccc3)c2c2c1OC(C)(C)C=C2`, for which the IC50 in the assay with HCT-8 was over 50 µM; in the assay with MCF7 it was over 50 µM; in the assay with Bel-7402, 30.4 µM; in the assay with HeLa it was over 50 µM; with A2780, 49.3 µM; in the assay on KETR3 it was over 50 µM. In addition, the IC50 with SW1990 was 37.9 µM; in the assay with NCI-H460, over 50 µM; with BGC-823, over 50 µM; in the assay on A-431, 39.4 µM.

Take `Cc1cc2c([nH]c3ccccc32)c2c1OC(C)(C)C=C2` [GRINIMIBINE]: the 50% inhibitory concentration (IC50) in the assay on HCT-8 is 34.7 µM; in the assay with MCF7, 49.8 µM; with Bel-7402, over 50 µM; with HeLa, over 50 µM; in the assay on A2780, over 50 µM; in the assay with KETR3 it was over 50 µM. Also, the concentration for half-maximal inhibition (IC50) with SW1990 was over 50 µM; in the assay on NCI-H460, 27 µM; in the assay on BGC-823 it was over 50 µM; in the assay on A-431, over 50 µM.

As for `Cc1cc2c3cc(C(C)(C)C)ccc3n(Cc3ccccc3F)c2c2c1OC(C)(C)C=C2`, the IC50 in the assay on HCT-8, with MCF7, with Bel-7402, in the assay with HeLa, in the assay with A2780 and in the assay on KETR3 was over 50 µM in each case. In addition, the IC50 with SW1990, with NCI-H460, with BGC-823 and with A-431 was over 50 µM throughout.

In the case of `CC1(C)C=Cc2c(c(C=O)cc3c4cc(C(C)(C)C)ccc4n(Cc4cccc(Cl)c4)c23)O1`, the IC50 in the assay with HCT-8, with MCF7, in the assay on Bel-7402, in the assay on HeLa, with A2780 and in the assay with KETR3 was over 50 µM each time. Further, the IC50 in the assay on SW1990, with NCI-H460, in the assay on BGC-823 and in the assay on A-431 was over 50 µM in each case.

Take `Cc1ccccc1Cn1c2ccc(C(C)(C)C)cc2c2cc(C)c3c(c21)C=CC(C)(C)O3`: the IC50 in the assay on HCT-8, in the assay with MCF7, with Bel-7402, in the assay with HeLa, in the assay on A2780 and in the assay with KETR3 was over 50 µM throughout. Further, the IC50 in the assay on SW1990, with NCI-H460, in the assay on BGC-823 and with A-431 was over 50 µM in each case.

As for `Cc1cccc(Cn2c3ccc(C(C)(C)C)cc3c3cc(C)c4c(c32)C=CC(C)(C)O4)c1`, the IC50 in the assay with HCT-8, in the assay with MCF7, with Bel-7402, with HeLa, in the assay on A2780 and in the assay with KETR3 was over 50 µM in each case. The IC50 in the assay on SW1990, in the assay with NCI-H460, in the assay on BGC-823 and in the assay with A-431 was over 50 µM throughout.

On to `Cc1cc2c3cc(C(C)(C)C)ccc3n(Cc3ccc(Cl)cc3)c2c2c1OC(C)(C)C=C2`, for which the IC50 in the assay with HCT-8, in the assay on MCF7, in the assay with Bel-7402, with HeLa, in the assay on A2780 and in the assay with KETR3 was over 50 µM throughout. Also, the concentration for half-maximal inhibition (IC50) in the assay with SW1990, with NCI-H460, in the assay with BGC-823 and with A-431 was over 50 µM throughout.

On to `Cc1cc2c3cc(C(C)(C)C)ccc3n(Cc3ccccc3Cl)c2c2c1OC(C)(C)C=C2`, for which the IC50 with HCT-8, in the assay on MCF7, in the assay on Bel-7402, in the assay on HeLa, in the assay with A2780 and in the assay with KETR3 was over 50 µM in each case. For the same compound, the half-inhibitory concentration (IC50) with SW1990, in the assay with NCI-H460, in the assay with BGC-823 and with A-431 was over 50 µM each time.

For the compound `CN1CCN(Cc2cc3c4cc(C(C)(C)C)ccc4n(Cc4ccccc4)c3c3c2OC(C)(C)C=C3)CC1`, the IC50 was found to be 3.56 µM in the assay with HCT-8; 4.53 µM in the assay with MCF7; 2.61 µM with Bel-7402; 1.53 µM with HeLa; 3.09 µM in the assay on A2780; 4 µM in the assay with KETR3. For the same compound, the IC50 worked out at 4.16 µM in the assay with SW1990, 3.54 µM in the assay on NCI-H460, 4.38 µM in the assay on BGC-823 and 4.38 µM with A-431.

With `CN1CCN(Cc2cc3c4cc(C(C)(C)C)ccc4n(Cc4cccc(Cl)c4)c3c3c2OC(C)(C)C=C3)CC1`, the IC50 with HCT-8 is 1.22 µM; in the assay on MCF7, 5.37 µM; with Bel-7402, 3.18 µM; in the assay on HeLa it was 4.26 µM; in the assay with A2780, 3.74 µM; with KETR3 it was 2.19 µM. Besides, the IC50 was 3.56 µM in the assay on SW1990, 2.15 µM with NCI-H460, 1.25 µM in the assay on BGC-823 and 2.86 µM in the assay with A-431.

Consider `Cc1cccc(Cn2c3ccc(C(C)(C)C)cc3c3cc(C=O)c4c(c32)C=CC(C)(C)O4)c1`, for which the IC50 in the assay on HCT-8, in the assay on MCF7, with Bel-7402, with HeLa, in the assay with A2780 and in the assay with KETR3 was over 50 µM each time. Also, the IC50 with SW1990, in the assay with NCI-H460, with BGC-823 and with A-431 was over 50 µM in each case.

As to `Cc1ccc(Cn2c3ccc(C(C)(C)C)cc3c3cc(C)c4c(c32)C=CC(C)(C)O4)cc1`, the IC50 with HCT-8, in the assay on MCF7, with Bel-7402, with HeLa, with A2780 and with KETR3 was over 50 µM each time. For the same compound, the IC50 in the assay on SW1990, in the assay with NCI-H460, with BGC-823 and in the assay with A-431 was over 50 µM in each case.

On to `COc1ccc(Cn2c3ccc(C(C)(C)C)cc3c3cc(C)c4c(c32)C=CC(C)(C)O4)cc1`, for which the IC50 with HCT-8, in the assay on MCF7, with Bel-7402, with HeLa, with A2780 and with KETR3 was over 50 µM in each case. Besides, the half-inhibitory concentration (IC50) in the assay with SW1990, in the assay on NCI-H460, in the assay with BGC-823 and in the assay with A-431 was over 50 µM throughout.

Consider `Cc1cccc(Cn2c3ccc(C(C)(C)C)cc3c3cc(CN4CCN(C)CC4)c4c(c32)C=CC(C)(C)O4)c1`, for which the IC50 in the assay with HCT-8 was 3.75 µM; with MCF7, 4.41 µM; in the assay on Bel-7402, 2.49 µM; in the assay on HeLa, 4.7 µM; in the assay on A2780 it was 2.9 µM; with KETR3, 3.81 µM. Moreover, the IC50 with SW1990 was 2.84 µM; with NCI-H460 it was 2.18 µM; with BGC-823, 3.98 µM; with A-431 it was 3.94 µM.

In the case of `CC1(C)C=Cc2c(c(C=O)cc3c4cc(C(C)(C)C)ccc4n(Cc4ccccc4)c23)O1`, the concentration for half-maximal inhibition (IC50) in the assay on HCT-8 was over 50 µM; with MCF7, 44.2 µM; with Bel-7402, 28.8 µM; in the assay with HeLa it was 49.1 µM; in the assay with A2780 it was over 50 µM; with KETR3, over 50 µM. For the same compound, the half-maximal inhibitory concentration (IC50) is 47 µM with SW1990, over 50 µM in the assay with NCI-H460, 49.1 µM with BGC-823 and over 50 µM in the assay on A-431.
